Test results: patent publication US7265139B2, “RXR activating molecules” (Incyte San Diego Inc., priority 2001, dated 2007)

Legend:
KKA^y mice = assay: Antidiabetic activity in type 2 diabetic KKA^y mice; type: in vivo, mouse
Experimental: Prior to commencing treatment, all of the animals are bled from the tail vein and serum levels of glucose and triglyceride are measured in duplicate. The animals are then sorted into different treatment groups with equal average triglyceride levels. The animals are treated with a single daily oral dose of the test compound suspended in sesame oil (dose volume of 3 ml/kg).
In short, adult diabetic KKA^y mice are housed in a fixed 12—12-hr artificial light-dark cycle, and maintained on a standard rodent diet. Prior to commencing treatment, all of the animals are bled from the tail vein and serum levels of glucose and triglyceride are measured in duplicate. The animals are then sorted into different treatment groups with equal average triglyceride levels. The animals are treated with a single daily oral dose ranging from 3-30 mg/kg of the test compound suspended in sesame oil (dose volume of 3-5 ml/kg). Following one week of treatment the animals are bled from the tail vein and Serum glucose and triglycerides are measured in duplicate.
In this example, compound 1, which belongs to the novel subclass of RXR ligands is compared to a typical RXR ligand like compound 2 in the treatment of KKA^y mice.
For this study, adult diabetic KKA^y mice were housed in a fixed 12—12-hr artificial light-dark cycle, and maintained on a standard rodent diet. Prior to commencing treatment, all of the animals are bled from the tail vein and serum levels of glucose and triglyceride are measured in duplicate. The animals are then sorted into different treatment groups with equal average triglyceride levels. The animals are treated with a single daily oral dose of the test compound suspended in sesame oil (dose volume of 3 ml/kg).

[1] = test system: Mouse 3T3-L1 preadipocytes; assay: 3T3-L1 adipocyte differentiation assay; type: cell-based; conditions: 0.1 μM compared to Compound 1 at equal concentration; pre-adipocytes to adipocytes
Experimental: Mouse 3T3-L1 cells were grown in 96-well tissue culture plates containing growing medium (DME containing 10% calf serum (CS) plus glutamine-pen-strep) at a density of 3,000 cells/well. Two days after reaching confluence, cells are treated with the different compounds in DM (Day 0). Compound 1 is included in all the experiments, and its ability to differentiate 3T3-L1 cells at 0.1 μM is taken as reference for 100% differentiation. After 7 days the lipid content of the cells was determined.
Prior to testing compounds in vivo, they can be run through the in vitro adipocyte differentiation assay based on the protocol of Zhang, et al. (1996) Negative Regulation of Peroxisome Proliferator—Activated Receptor—γGene Expression Contributes to the Antiadipogenic effects of Tumor Necrosis Factor—α. Mol. Endo. 10:1457-1456, incorporated herein by reference. In short, mouse 3T3-L1 preadipocytes are grown in culture medium containing 10% calf serum supplemented with antibiotics. Two days after reaching confluence, cells are treated with the selected compound at different concentrations dissolved in medium containing 10% fetal calf serum supplemented with antibiotics and kept at 10% CO2. The test compounds are replaced every 2-3 days. Differentiation is assessed after 7 days of treatment by the lipid content in the cells, using the Triglyceride (INFINITY) reagent (Sigma Chemical, St. Louis, Mo.).
The ability of a compound to induce preadipocytes to differentiate into adipocytes is an indicator of its antidiabetic activity. This allows for screening many compounds in a simple in vitro assay, thus avoiding the task of testing all compounds in vivo. The adipocyte differentiation assay is based on the protocol of Zhang, et al. (1996) Negative Regulation of Peroxisome Proliferator-Activated Receptor-γ Gene Expression Contributes to the Antiadipogenic effects of Tumor Necrosis Factor—α. Mol. Endo. 10:1457-1456, incorporated herein by reference at least for material related to adipocyte differentiation assays. Mouse 3T3-L1 preadipocytes are grown in culture medium containing 10% calf serum supplemented with antibiotics. Two days after reaching confluence, cells are treated with the selected compound at different concentrations dissolved in medium containing 10% fetal calf serum supplemented with antibiotics and kept at 10% CO2. The test compounds are replaced every 2-3 days. Differentiation is assessed after 7 days of treatment by the lipid content in the cells, using the Triglyceride (INFINITY) reagent (Sigma Chemical, St. Louis, Mo.) (see FIG. 15).

[2] = following one and two weeks of treatment

Cc1cc2c(cc1-c1cc(C=C3SC(=O)NC3=O)ccc1OC(F)(F)F)C(C)(C)CCC2(C)C [Compound 1]
serum glucose levels compared to vehicle treated control mice (KKA^y mice; 5 mg/kg, single daily oral dose in sesame oil, FIG. 10, p≦0.01): significant decrease
serum triglyceride levels compared to vehicle treated control mice (KKA^y mice; 5 mg/kg, single daily oral dose, FIG. 11, p≦0.05): significant decrease
Efficacious in KKAy Mice (KKA^y mice; efficacious = lowers glucose without increasing triglycerides): Yes
glucose levels compared to vehicle treated control mice (KKA^y mice; [2]): statistically significant decrease
triglyceride levels compared to vehicle treated control mice (KKA^y mice; [2]): statistically significant decrease
Differentiation Activity [1]: 100%
